{
  "source": "patent US20220370467A1",
  "about": "“USING OF A PPAR-DELTA AGONIST IN THE TREATMENT OF KIDNEY DISEASE” (Reneo Pharmaceuticals, Inc., priority 2019, published 2022)",
  "key": {"[1]": {"test_system": "human retinoid X receptor (hRXR)", "test": "human retinoid X receptor activity"}, "LXRβ": {"biological_target": "T1, LXRβ (Homo sapiens, UniProt P55055)", "T1 sequence (P55055 1-460)": "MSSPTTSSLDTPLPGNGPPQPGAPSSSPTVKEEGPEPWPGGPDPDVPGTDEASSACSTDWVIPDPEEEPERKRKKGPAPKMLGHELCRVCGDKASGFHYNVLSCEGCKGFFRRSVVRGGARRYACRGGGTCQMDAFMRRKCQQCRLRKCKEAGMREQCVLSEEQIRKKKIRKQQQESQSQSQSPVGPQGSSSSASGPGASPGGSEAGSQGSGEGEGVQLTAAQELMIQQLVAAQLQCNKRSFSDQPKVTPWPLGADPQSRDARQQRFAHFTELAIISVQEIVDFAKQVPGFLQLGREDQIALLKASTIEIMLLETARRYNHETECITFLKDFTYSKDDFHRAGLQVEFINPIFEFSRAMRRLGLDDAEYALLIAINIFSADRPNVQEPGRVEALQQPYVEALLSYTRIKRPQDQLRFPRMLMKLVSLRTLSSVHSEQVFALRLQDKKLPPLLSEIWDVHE", "test": "activity on nuclear receptor LXRβ"}, "[2]": {"test_system": "B6129S1 hybrid Col4a3−/− mice", "test": "Mouse Alport model of kidney fibrosis, Study 1", "assay_type": "in vivo", "excerpt": "(§1) Mice with mutations in one of the collagen IV genes of glomerular basement membrane collagen, Collagen IV-α3/α4/α5, have defects in glomerular function with development of kidney fibrosis. These mice develop renal dysfunction and die prematurely of renal failure with specific timing dependent on the strain background upon which the mutation is present.\n(§2) Generation of Col4a3^−/−mice was as described in Miner, J. H., and Sanes, J. R. (1996), J. Cell Biol. 135:1403-1413. Studies of Compound 1 efficacy in Alport models of kidney fibrosis were performed using mice on two different strain backgrounds. Study 1 used B 6129S1 F1 hybrid Alport mice that usually reach end stage renal disease (ESRD) at about 17 to 19 weeks. These were generated by crosses between C57BL6/J (B 6) and 129S1/Sv1mJ (129S1) Alport mice. Study 2 used inbred 129S1 Col4a3^−/− mice, which usually reach ESRD at about 11 to 13 weeks.\nStudy 1—B6129S1 hybrid Col4a3^−/− mice were given administrations via intraperitoneal injection of either vehicle (PBS) or Compound 1 (10 mg/kg) once a day from 6 to 17-weeks of age. There were 12 mice per group. B6129S1 hybrid Col4a3^+/− mice were used as non-disease controls. Compound 1 was dissolved at 2 mg/mL in PBS twice a week. The dosing volume was calculated as body weight (g)*5 μL (e.g. body weight 20 g: 20*5=100 μL).\n(§3) Urine and blood samples were collected at the time points of 12, 15, and 17-weeks of age for B6129S1 hybrid Col4a3^+/−, −/− mice and at 8 and 10-weeks of age for inbred 129S1 Col4a3^−/− mice. Urinary protein concentration was determined by Bradford assay (Cat. 5000006, Bio-Rad) and comparison with bovine serum albumin standards. Urinary creatinine was measured by QuantiChrom™ Creatinine Assay Kit (Cat.DICT-500, BioAssay systems) and used to normalize the amount of urine. Blood urea nitrogen (BUN) levels were measured by QuantiChrom™ Urea Assay Kit (Cat.DUR2-100, BioAssay systems). Urine and blood samples were stored at −20° C. and −80° C. respectively after collection and subsequently analyzed.\nFor biochemistry, kidneys were collected from 15 and 17-week old B 6129S1 hybridCol4a3^+/−, −/− mice; and from 8 and 10-week old inbred 129S1 Col4a3^−/− mice. Collected kidneys were quickly frozen by liquid nitrogen and stored at −80° C. Kidneys were minced in cold PBS containing protease inhibitor (Cat. 786-108, G-BIOSCIENCES), centrifuged, and supernatants were removed. Tissue pellets were washed with PBS and centrifuged again. Tissue pellets were lysed with RIPA buffer containing protease inhibitor and phosphatase inhibitor (Sigma-Aldrich, Cat. P5726). Protein concentration was measured by BCA assays (Cat. 23227, ThermoFisher). The following antibodies were used in western blotting: anti-kidney injury molecule 1 (KIM1) antibody (AF1817, R&D), anti-Lipocalin2/NGAL antibody (ab70287, abcam), anti-phosho-STAT3 antibody (#9145, CST), anti-CTGFantibody (sc-365970, Santa Cruz), anti-TGFb 1,2,3 antibody (MAB1835, R&D), anti-Fibronectin antibody (F3648,Sigma), anti-alpha smooth muscle acting (SMA) antibody (F3777, Sigma), anti-Collagen I antibody (1310-01, SouthernBiotech), anti-Collagen IV antibody (1340-01, SouthernBiotech), anti-alpha Tubulin antibody (#2144, CST).\nFor all groups, analysis includes measurement of blood urea nitrogen and urinary albumin: creatinine ratios. The analysis also includes renal histopathology (glomerulosclerosis and tubulo-interstitial fibrosis; and analysis of glomerular basement membrane and podocyte ultrastructure. Plasma samples are analyzed for Compound 1 concentration to ensure adequate circulating levels for efficient target engagement. qRT-PCR is performed using RNA from several relevant tissues to examine expression of known transcriptional targets of PPARδ (e.g., PGC1α).\nAll data are presented as mean±SEM. Statistical significance was determined by Oneway ANOVA with Dunnett's multiple comparison for more than three group comparison and Student's t test for two group comparison."}, "[3]": {"test_system": "inbred 129S1 Col4a3−/− mice", "test": "Mouse Alport model of kidney fibrosis, Study 2", "assay_type": "in vivo", "excerpt": "as §1\nas §2, with “13 weeks. […]” for “13 weeks.”\nas §3\nFor biochemistry, kidneys were collected from 15 and 17-week old B 6129S1 hybridCol4a3^+/−, −/− mice; and from 8 and 10-week old inbred 129S1 Col4a3^−/− mice. […] Protein concentration was measured by BCA assays (Cat. 23227, ThermoFisher). […]\nAll data are presented as mean±SEM. Statistical significance was determined by Oneway ANOVA with Dunnett's multiple comparison for more than three group comparison and Student's t test for two group comparison. […]"}, "[4]": {"details": "10 mg/kg i.p., compared with vehicle-treated mice"}, "[5]": {"details": "whole kidneys, western blotting"}, "[6]": {"details": "3 or 10 mg/kg i.p. once a day, samples at 8 and 10-weeks of age, data not shown"}},
  "note": "“Also recorded” adds a separate entry of the source.",
  "data": [
    {"smiles": "Cc1cc(OC/C=C(/c2ccc(F)cc2)c2ccc(C#CCN3CCOCC3)cc2)ccc1OCC(=O)O", "note": "[Compound 1, (E)-[4-[3-(4-Fluorophenyl)-3-[4-[3-(morpholin-4-yl)propynyl]phenyl]allyloxy]-2-methyl-phenoxy]acetic acid]", "values": [
      {"measurement": "hRXR activity", "setting": "[1]", "result": "did not show any"},
      {"measurement": "activity on LXRβ", "setting": "LXRβ", "result": "did not show any"},
      {"measurement": "kidney dysfunction", "setting": "[2]; 10 mg/kg i.p. once a day from 6 to 17-weeks of age", "result": "attenuated"},
      {"measurement": "blood urea nitrogen (BUN)", "setting": "[2]; 10 mg/kg i.p. once a day, at 12 and 17-weeks of age", "result": "suppressed the increase"},
      {"measurement": "proteinuria", "setting": "[2]; 10 mg/kg i.p. once a day, at 17-weeks of age (late stage)", "result": "suppressed; also recorded: significantly reduced"},
      {"measurement": "renal histology", "setting": "[2]; 10 mg/kg i.p., H&E and Trichrome kidney sections", "result": "slightly improved"},
      {"measurement": "extent of fibrosis", "setting": "[2]; [4]", "result": "slightly decreased; also recorded: decreased"},
      {"measurement": "necrotic regions in the cortex", "setting": "[2]; [4]", "result": "decreased"},
      {"measurement": "infiltration of inflammatory cells", "setting": "[2]; 10 mg/kg i.p., microscopic examination of kidney sections", "result": "slightly reduced"},
      {"measurement": "CTGF expression", "setting": "[2]; [5]", "result": "attenuated"},
      {"measurement": "Collagen I expression", "setting": "[2]; [5]", "result": "decreased"},
      {"measurement": "Collagen IV expression", "setting": "[2]; [5]", "result": "decreased"},
      {"measurement": "NGAL protein level", "setting": "[2]; [5]", "result": "decreased"},
      {"measurement": "alpha-SMA expression", "setting": "[2]; [5]", "result": "decreased"},
      {"measurement": "fibronectin expression", "setting": "[2]; [5]", "result": "not changed"},
      {"measurement": "phosho-Stat3 expression", "setting": "[2]; [5]", "result": "attenuated"},
      {"measurement": "KIM-1 protein level", "setting": "[2]; whole kidneys, western blotting, vs vehicle", "result": "not changed"},
      {"measurement": "kidney dysfunction", "setting": "[3]; 3 or 10 mg/kg i.p. once a day from 4 to 10-weeks of age", "result": "did not attenuate"},
      {"measurement": "BUN", "setting": "[3]; [6]", "result": "did not result in any significant reduction"},
      {"measurement": "proteinuria", "setting": "[3]; [6]", "result": "did not result in any significant reduction"}
    ]}
  ]
}
